# Measured values from US11464782B2, “Method of treating pain or interstitial cystitis using indole compound” (Japan Tobacco Inc., priority 2018, dated 2022).
# Where a name gives a salt, the structure may show the parent alone.
# Legend:
# [1] = tested on: NGF-induced thermal hyperalgesia; assay: NGF-induced thermal hyperalgesia in rats (plantar test, paw withdrawal latency); format: in vivo, rat
# Description: In order to induce a pain-related behavior (withdrawal behavior), NGF was injected into the plantar area of the left hind paw of rats and the thermal latencies/mechanical thresholds were measured. The effects of Compound A on these withdrawal behaviors were investigated. At 2 days before the injection of NGF, the thermal latencies or mechanical thresholds were measured for acclimation to the experimental environment. On the day before injection of NGF, body weights and values of the thermal latencies or mechanical thresholds were obtained. 50 μL of NGF solution was injected intraplantar to left hind paw of rats. 0.5 μg/site of NGF was selected in the evaluation of thermal stimuli and 1 μg/site was selected in that of mechanical stimuli. A monohydrochloride of Compound A (1, 3, or 10 mg/kg) was administered orally at the same time as the NGF injection. The latencies to thermal stimuli were measured at 3 and 6 hours after injection of NGF solution, and the thresholds to mechanical stimuli were measured at 1, 3 and 6 hours after injection of NGF solution. The evaluation was performed as a blind test of each group. The thermal latency was measured using a plantar test apparatus. An infrared heat stimuli was delivered to the plantar area of the hind paw and the time to withdraw the paw from the heat source was recorded automatically as the thermal latency. The measurement was performed 5 times for both hind paws of each animal, the averages of the last 3 values in each hind paw were accounted as the thermal latencies of each animal. The measurement for acclimation was performed only 3 times.
# [2] = tested on: NGF-induced mechanical hyperalgesia; assay: NGF-induced mechanical hyperalgesia in rats (pressure analgesy-meter, paw withdrawal threshold); format: in vivo, rat
# Description: In order to induce a pain-related behavior (withdrawal behavior), NGF was injected into the plantar area of the left hind paw of rats and the thermal latencies/mechanical thresholds were measured. The effects of Compound A on these withdrawal behaviors were investigated. At 2 days before the injection of NGF, the thermal latencies or mechanical thresholds were measured for acclimation to the experimental environment. On the day before injection of NGF, body weights and values of the thermal latencies or mechanical thresholds were obtained. 50 μL of NGF solution was injected intraplantar to left hind paw of rats. 0.5 μg/site of NGF was selected in the evaluation of thermal stimuli and 1 μg/site was selected in that of mechanical stimuli. A monohydrochloride of Compound A (1, 3, or 10 mg/kg) was administered orally at the same time as the NGF injection. The latencies to thermal stimuli were measured at 3 and 6 hours after injection of NGF solution, and the thresholds to mechanical stimuli were measured at 1, 3 and 6 hours after injection of NGF solution. The evaluation was performed as a blind test of each group. The mechanical threshold was measured using a pressure analgesy-meter. A mechanical stimulus (pressure) increased at a constant rate was added to the hind paw, and the pressure under load until animals withdrew its hind paw or vocalization was recorded as the mechanical threshold (mmHg).
# [3] = 1 mg/kg oral, right hind paw (uninjected side), 3 hr
# [4] = 1 mg/kg oral, right hind paw (uninjected side), 6 hr
# [5] = 1 mg/kg oral, right hind paw (uninjected side), pre
# [6] = 3 mg/kg oral, right hind paw (uninjected side), 3 hr
# [7] = 3 mg/kg oral, right hind paw (uninjected side), 6 hr
# [8] = 3 mg/kg oral, right hind paw (uninjected side), pre
# [9] = 10 mg/kg oral, right hind paw (uninjected side), 3 hr
# [10] = 10 mg/kg oral, right hind paw (uninjected side), 6 hr
# [11] = 10 mg/kg oral, right hind paw (uninjected side), pre
smiles,measurement,setting,value
C[C@@H](C(=O)N(C)c1ccc2cc(-c3n[nH]c4c3CCC(C)(C)C4)[nH]c2c1)N1CCOCC1 [Compound A•HCl],Paw Withdrawal Latency,"[1]; 1 mg/kg oral, left hind paw (injected side, NGF 0.5 μg/site), 3 hr",10.0 ± 2.6 s
same,Paw Withdrawal Latency,"[1]; 1 mg/kg oral, left hind paw (injected side, NGF 0.5 μg/site), 6 hr",8.7 ± 2.0 s
same,Paw Withdrawal Latency,"[1]; 1 mg/kg oral, left hind paw (injected side, NGF 0.5 μg/site), pre",11.4 ± 1.2 s
same,Paw Withdrawal Latency,[1]; [3],10.9 ± 1.4 s
same,Paw Withdrawal Latency,[1]; [4],10.8 ± 2.4 s
same,Paw Withdrawal Latency,[1]; [5],11.6 ± 1.1 s
same,Paw Withdrawal Latency,"[1]; 3 mg/kg oral, left hind paw (injected side, NGF 0.5 μg/site), 3 hr",10.3 ± 1.6 s
same,Paw Withdrawal Latency,"[1]; 3 mg/kg oral, left hind paw (injected side, NGF 0.5 μg/site), 6 hr",9.9 ± 1.5 s
same,Paw Withdrawal Latency,"[1]; 3 mg/kg oral, left hind paw (injected side, NGF 0.5 μg/site), pre",11.2 ± 1.9 s
same,Paw Withdrawal Latency,[1]; [6],12.3 ± 2.2 s
same,Paw Withdrawal Latency,[1]; [7],11.9 ± 1.9 s
same,Paw Withdrawal Latency,[1]; [8],11.6 ± 1.5 s
same,Paw Withdrawal Latency,"[1]; 10 mg/kg oral, left hind paw (injected side, NGF 0.5 μg/site), 3 hr",11.6 ± 2.4 s
same,Paw Withdrawal Latency,"[1]; 10 mg/kg oral, left hind paw (injected side, NGF 0.5 μg/site), 6 hr",11.3 ± 1.4 s
same,Paw Withdrawal Latency,"[1]; 10 mg/kg oral, left hind paw (injected side, NGF 0.5 μg/site), pre",12.0 ± 1.1 s
same,Paw Withdrawal Latency,[1]; [9],11.9 ± 2.7 s
same,Paw Withdrawal Latency,[1]; [10],11.5 ± 1.2 s
same,Paw Withdrawal Latency,[1]; [11],11.9 ± 1.2 s
same,Paw Withdrawal Threshold (mmHg),"[2]; 1 mg/kg oral, left hind paw (injected side, NGF 1 μg/site), 1 hr",107 ± 17 mmHg
same,Paw Withdrawal Threshold (mmHg),"[2]; 1 mg/kg oral, left hind paw (injected side, NGF 1 μg/site), 3 hr",104 ± 20 mmHg
same,Paw Withdrawal Threshold (mmHg),"[2]; 1 mg/kg oral, left hind paw (injected side, NGF 1 μg/site), 6 hr",90 ± 11 mmHg
same,Paw Withdrawal Threshold (mmHg),"[2]; 1 mg/kg oral, left hind paw (injected side, NGF 1 μg/site), Pre",126 ± 21 mmHg
same,Paw Withdrawal Threshold (mmHg),"[2]; 1 mg/kg oral, right hind paw (uninjected side), 1 hr",134 ± 16 mmHg
same,Paw Withdrawal Threshold (mmHg),[2]; [3],135 ± 21 mmHg
same,Paw Withdrawal Threshold (mmHg),[2]; [4],133 ± 9 mmHg
same,Paw Withdrawal Threshold (mmHg),[2]; [5],132 ± 15 mmHg
same,Paw Withdrawal Threshold (mmHg),"[2]; 3 mg/kg oral, left hind paw (injected side, NGF 1 μg/site), 1 hr",118 ± 17 mmHg
same,Paw Withdrawal Threshold (mmHg),"[2]; 3 mg/kg oral, left hind paw (injected side, NGF 1 μg/site), 3 hr",121 ± 21 mmHg
same,Paw Withdrawal Threshold (mmHg),"[2]; 3 mg/kg oral, left hind paw (injected side, NGF 1 μg/site), 6 hr",106 ± 11 mmHg
same,Paw Withdrawal Threshold (mmHg),"[2]; 3 mg/kg oral, left hind paw (injected side, NGF 1 μg/site), Pre",152 ± 26 mmHg
same,Paw Withdrawal Threshold (mmHg),"[2]; 3 mg/kg oral, right hind paw (uninjected side), 1 hr",133 ± 19 mmHg
same,Paw Withdrawal Threshold (mmHg),[2]; [6],141 ± 10 mmHg
same,Paw Withdrawal Threshold (mmHg),[2]; [7],144 ± 23 mmHg
same,Paw Withdrawal Threshold (mmHg),[2]; [8],148 ± 25 mmHg
same,Paw Withdrawal Threshold (mmHg),"[2]; 10 mg/kg oral, left hind paw (injected side, NGF 1 μg/site), 1 hr",130 ± 20 mmHg
same,Paw Withdrawal Threshold (mmHg),"[2]; 10 mg/kg oral, left hind paw (injected side, NGF 1 μg/site), 3 hr",134 ± 22 mmHg
same,Paw Withdrawal Threshold (mmHg),"[2]; 10 mg/kg oral, left hind paw (injected side, NGF 1 μg/site), 6 hr",130 ± 18 mmHg
same,Paw Withdrawal Threshold (mmHg),"[2]; 10 mg/kg oral, left hind paw (injected side, NGF 1 μg/site), Pre",136 ± 17 mmHg
same,Paw Withdrawal Threshold (mmHg),"[2]; 10 mg/kg oral, right hind paw (uninjected side), 1 hr",144 ± 14 mmHg
same,Paw Withdrawal Threshold (mmHg),[2]; [9],139 ± 17 mmHg
same,Paw Withdrawal Threshold (mmHg),[2]; [10],139 ± 13 mmHg
same,Paw Withdrawal Threshold (mmHg),[2]; [11],139 ± 17 mmHg
